Test results: patent US12109187B2, “Antimicrobial compositions and related methods” (priority 2020, dated 2024)
Entries after “also recorded” stand apart in the source; their conditions may differ.

What was measured:
[1] = system: LpnA; assay type: cell-based, Francisella tularensis LVS
[2] = system: Acinetobacter baumannii; design: species or system Galleria mellonella; conditions: in vivo
[3] = system: F. tularensis live vaccine strain (LVS); assay: microbe, parasite or virus in culture; assay type: cell-based, Francisella tularensis
[4] = system: F. tularensis LVS/pTC3D; assay type: cell-based, Francisella tularensis
[5] = system: mammalian cells
[6] = system: MglA/SspA regulon; assay type: cell-based, Francisella tularensis LVS
[7] = system: IglC; assay type: cell-based, Francisella tularensis LVS
[8] = system: IglA; assay type: cell-based, Francisella tularensis LVS
[9] = system: TNFα; assay type: cell-based
[10] = system: F. tularensis LVS; assay type: cell-based, Francisella tularensis
[11] = system: A. baumannii; assay type: cell-based, Acinetobacter baumannii

## C=CCc1cc2c(c(OC)c1OC)OCO2 [dillapiole]
[1]
  LpnA production: unaffected
[2]
  rate of survival of infected wax worms: significantly higher rate of survival
[3]
  intracellular replication of F. tularensis LVS in THP-1 monocytes (CFU): sufficient to inhibit replication of F. tularensis
[3]; Francisella tularensis, read-out: minimum inhibitory concentration (MIC)
  MIC: < 7 µg/mL
[4]
  replication of F. tularensis in RAW 264.7 mouse macrophages: sufficient to inhibit replication of F. tularensis
[5]
  toxicity to mammalian cells: not toxic to mammalian cells
[6]
  expression of virulence factors / genes controlled by MglA/SspA (incl. FPI genes): decrease in expression of several key virulence factors; also recorded: significantly decreased expression following treatment with dillapiole
[7]
  IglC protein expression: significant reduction
[8]
  IglA protein expression: significant reduction
[9]
  TNFα production: decreased TNFα production
[10]
  bacterial growth as determined by optical density: did not affect bacterial growth
[11]
  A. baumannii viability in rich growth media: did not diminish A. baumannii viability
